Experimental data published in patent US20200291100A1, “TREATMENT OF AGE-RELATED AND MITOCHONDRIAL DISEASES BY INHIBITION OF HIF-1 ALPHA FUNCTION” (President and Fellows of Harvard College, priority 2012, published 2020).

Tests used:
C2C12 myoblasts = experiment: DMOG treatment of C2C12 myoblasts, mtDNA content and ETC gene expression; assay type: cell-based, mouse; conditions: 16 h
Description: To test if the normal hypoxic response reproduces the effect of a SIRT1 deletion by causing genome asynchrony, C2C12 myoblasts were grown under hypoxic conditions (1% oxygen) or treated with dimethyloxaloylglycine (DMOG), a HIFα prolyl hydroxylase inhibitor that stabilizes HIF.
C2C12 cell line (ATCC) was cultured in low glucose Dulbecco's modified eagle medium (DMEM) (Invitrogen) supplemented with 10% FBS (Invitrogen) and a mix of antibiotic and antimycotic (Invitrogen). To inhibit SIRT1, cells were treated the vehicle (0.001% DMSO) or 10 μM EX-527 (Tocris) for 12 h. C2C12 myoblasts were infected with an empty or SIRT1 adenovirus as described before (Gerhart-Hines et al., 2007) and the media was replaced with fresh DMEM for additional 48 h, after that the cells were treated as described before. To test the effects of hypoxia and HIFα stabilization in genome asyncrony, C2C12 myoblasts were exposed to 1% oxygen for 16 h or treated with the vehicle (0.001% DMSO) or DMOG (Cayman) for the same period of time.
(§1) RNA from skeletal muscle tissue and C2C12 cells were extracted with RNeasy mini kit (Qiagen) according to the instructions and quantified using the NanoDrop 1000 spectrophotometer (Thermo Scientific). cDNA was synthesized with the iSCRIP cDNA synthesis kit (BioRad) using 600 ng of RNA. Quantitative RT-PCR reactions were performed using 1 μM of primers and LightCycler® 480 SYBR Green Master (Roche) on an LightCycler® 480 detection system (Roche). Calculations were performed by a comparative method (2-ΔCT) using 18S as an internal control. For mtDNA analysis, total DNA was extracted with DNeasy blood and tissue kit (Qiagen). mtDNA was amplified using primers specific for the mitochondrial cytochrome c oxidase subunit 2 (COX2) gene and normalized to genomic DNA by amplification of the ribosomal protein s18 (rps18) nuclear gene. Primers were designed using the IDT software (IDT) and the primer sequences can be found in Table 1.

SIRT1-tg mice = experiment: DMOG treatment of SIRT1-tg mice, gastrocnemius readouts; assay type: in vivo, mouse; conditions: DMOG 300 mg/kg IP per day, 5 days
Description: Whole body SIRT1 overexpressor (SIRT1-tg) mice of 6 months of age were given interperitoneal (IP) injections of 300 mg DMOG/kg body weight per day or the equivalent volume of PBS for 5 consecutive days.
ATP content was measured with a commercial kit according to the manufacturer's instructions (Roche).
as §1
Protein extracts from tissue or C2C12 cells were obtained by lysis in ice-cold lysis buffer (150 mM NaCl, 10 mM Tris HCl (pH 7.4), 1 mM EDTA, 1 mM EGTA, 1% Triton X-100, 0.5% NP-40) supplemented with a cocktail of protease and phosphatase inhibitors (Roche). Protein content was determined by the Bradford protein assay (Biorad), and 50 μg proteins were run on SDS-PAGE under reducing conditions. The separated proteins were then electrophoretically transferred to a polyvinylidene difluoride membrane (Perkin-Elmer). […] The immunostaining was detected using horseradish peroxidase-conjugated anti-rabbit or anti-mouse immunoglobulin for 1 h at room temperature.

`COC(=O)CNC(=O)C(=O)OC` [DMOG, dimethyloxaloylglycine] was tested, and the “expression of mitochondrially-encoded ETC genes” value (C2C12 myoblasts) was “specific decline”, the “expression of nuclear-encoded ETC components” value (C2C12 myoblasts) was “but not the nuclear-encoded components” and the mtDNA content (C2C12 myoblasts) was “specific decline”. For the same molecule, the “HIF-1α protein (immunoblot)” value (SIRT1-tg mice) was “increase HIF-1α”, the “effect on the increase in ATP levels observed in SIRT1-tg mice” value (SIRT1-tg mice) was “abolished the increase” and the “effect on the increase in expression of mitochondrial-encoded genes observed in SIRT1-tg mice” value (SIRT1-tg mice) was “abolished the increase”.
